# Measurements: patent US20100092427A1, “Pyridinone Diketo Acids: Inhibitors of HIV Replication in Combination Therapy” (THE UNIVERSITY OF GEORGIA RESEARCH FOUNDATION, priority 2006, published 2010)
# Where two headings read alike, the source gives them in different places.
# Columns and labels:
# in vitro = details: human, pooled liver microsomes
# PBMC = experiment: cytotoxicity (CC95) in PBMC, same anti-HIV study
# HIVNL4-3 = experiment: anti-HIV data in PBMC for the clinical isolate HIVNL4-3; type: cell-based
# physchem = details: buffer, pH 7.4
half-life (in vitro) [h],half-life (physchem) [h],Structure (SMILES),CC95 (PBMC) [nM],EC95 (HIVNL4-3) [nM],EC95 (HIVNL4-3; AZT in the same study) [nM]
> 6,> 41,O=C(O)/C(O)=C/C(=O)c1cc(Cc2ccccc2)cn(Cc2ccccc2)c1=O [Compound 8],> 200000,610,
,,"Cc1cn([C@H]2C[C@H](N=[N+]=[N-])[C@@H](CO)O2)c(=O)[nH]c1=O [AZT, Zidovudine, reference compound]",> 1000,,9.42
